From patent US10689344B2, “Biphenylamide derivative Hsp90 inhibitors” (University of Kansas, priority 2013, dated 2020)

What was measured:
[1] = tested on: SKBr3 (estrogen receptor negative, HER2 over-expressing breast cancer cells); experiment: Anti-proliferation assay (MTS/PMS, 72 h), SKBr3; format: cell-based; conditions: Homo sapiens
Protocol: (§1) Cells were maintained in a 1:1 mixture of Advanced DMEM/F12 (Gibco) supplemented with non-essential amino acids, L-glutamine (2 mM), streptomycin (500 μg/mL), penicillin (100 units/mL), and 10% FBS. Cells were grown to confluence in a humidified atmosphere (37° C., 5% CO2), seeded (2000/well, 100 μL) in 96-well plates, and allowed to attach overnight. Compound at varying concentrations in DMSO (1% DMSO final concentration) was added, and cells were returned to the incubator for 72 h. At 72 h, the number of viable cells was determined using an MTS/PMS cell proliferation kit (Promega) per the manufacturer's instructions. Cells incubated in 1% DMSO were used at 100% proliferation, and values were adjusted accordingly. IC50 values were calculated from separate experiments performed in triplicate using GraphPad Prism.
(§2) Anti-proliferative studies with the compounds described herein were performed against the SKBr3 (estrogen receptor negative, HER2 over-expressing breast cancer cells) and MCF-7 (estrogen receptor positive breast cancer cells) breast cancer cell lines. […] In some embodiments, in contrast to the novobiocin derivatives, which usually manifest better anti-proliferative activities against the SKBr3 cell line, the biphenyl derivatives described herein were more efficacious against the MCF-7 cell line. In general, all substitutions on the phenyl ring were determined to be beneficial, consistent with the existence of a hydrophobic pocket in this region of the Hsp90 C-terminal binding site.

[2] = tested on: MCF-7 (estrogen receptor positive breast cancer cells); experiment: Anti-proliferation assay (MTS/PMS, 72 h), MCF-7; format: cell-based; conditions: Homo sapiens
Protocol: as §1, §2

[3] = SK-BR-3, Table 10, longer alkyl chain substituted biphenyl core
[4] = MCF7, Table 10, longer alkyl chain substituted biphenyl core
[5] = SK-BR-3, Table 11, heteroatom linked biphenyl core
[6] = MCF7, Table 11, heteroatom linked biphenyl core
[7] = SK-BR-3, Table 2, para-meta biphenyl core with substituted benzylamide
[8] = MCF7, Table 2, para-meta biphenyl core with substituted benzylamide
[9] = SK-BR-3, Table 1, ortho, meta and para biphenyl cores
[10] = MCF7, Table 1, ortho, meta and para biphenyl cores
[11] = SK-BR-3, Table 4, para-para heteroatom substituted biphenyl core
[12] = MCF7, Table 4, para-para heteroatom substituted biphenyl core
[13] = SK-BR-3, Table 3, substituted para-para biphenyl core
[14] = MCF7, Table 3, substituted para-para biphenyl core

CCCOc1ccc(C(=O)Nc2ccc(-c3ccc(OC4CCN(C)CC4)cc3)cc2)cc1-c1cccc(OC)c1
IC50 [1, 3]: 1030 ± 40 nM | IC50 [2, 4]: 1660 ± 120 nM

COc1cccc(-c2cc(C(=O)Nc3ccc(-c4ccc(OC5CCN(C)CC5)c(CCC(C)C)c4)cc3)ccc2OC)c1
IC50 [1, 3]: 1180 ± 40 nM | IC50 [2, 4]: 1430 ± 220 nM

CN1CCC(Oc2ccc(Nc3ccc(NC(=O)c4ccc(Cl)cc4)cc3)cc2)CC1
IC50 [1, 5]: 6440 ± 2610 nM | IC50 [2, 6]: 7100 nM

CN1CCC(Oc2ccc(Nc3ccc(NC(=O)c4ccc(C(C)(C)C)cc4)cc3)cc2)CC1
IC50 [1, 5]: 2170 ± 30 nM | IC50 [2, 6]: 3370 ± 1630 nM

CN1CCC(Oc2ccc(Nc3ccc(NC(=O)c4ccc5ccccc5c4)cc3)cc2)CC1
IC50 [1, 5]: 4600 ± 250 nM | IC50 [2, 6]: 2150 ± 10 nM

CN1CCC(Oc2ccc(-c3cccc(NC(=O)c4ccccc4)c3)cc2)CC1 [Compound 6b, N-(4′-((1-methylpiperidin-4-yl)oxy)-[1,1′-biphenyl]-3-yl)benzamide]
IC50 [1, 7]: 18900 ± 950 nM | IC50 [2, 8]: 12000 ± 570 nM

Cc1ccc(C(=O)Nc2cccc(-c3ccc(OC4CCN(C)CC4)cc3)c2)cc1 [Compound 6c, 4-methyl-N-(4′-((1-methylpiperidin-4-yl)oxy)-[1,1′-biphenyl]-3-yl)benzamide]
IC50 [1, 7]: 5270 nM | IC50 [2, 8]: 3920 ± 130 nM

Cc1cccc(C(=O)Nc2cccc(-c3ccc(OC4CCN(C)CC4)cc3)c2)c1 [Compound 6d, 3-methyl-N-(4′-((1-methylpiperidin-4-yl)oxy)-[1,1′-biphenyl]-3-yl)benzamide]
IC50 [1, 7]: 11400 ± 1370 nM | IC50 [2, 8]: 7730 ± 1900 nM

CN1CCC(Oc2ccc(-c3cccc(NC(=O)c4ccc(C(C)(C)C)cc4)c3)cc2)CC1 [Compound 6e, 4-(tert-butyl)-N-(4′-((1-methylpiperidin-4-yl)oxy)-[1,1′-biphenyl]-3-yl)benzamide]
IC50 [1, 9]: 1510 ± 310 nM | IC50 [1, 7]: 1510 ± 310 nM | IC50 [2, 10]: 3450 ± 20 nM | IC50 [2, 8]: 3450 ± 20 nM

COc1ccc(C(=O)Nc2cccc(-c3ccc(OC4CCN(C)CC4)cc3)c2)cc1 [Compound 6f, 4-methoxy-N-(4′-((1-methylpiperidin-4-yl)oxy)-[1,1′-biphenyl]-3-yl)benzamide]
IC50 [1, 9]: 10100 ± 930 nM | IC50 [1, 7]: 10100 ± 930 nM | IC50 [2, 10]: 5520 ± 10 nM | IC50 [2, 8]: 5520 ± 10 nM

COc1cccc(C(=O)Nc2cccc(-c3ccc(OC4CCN(C)CC4)cc3)c2)c1 [Compound 6g, 3-methoxy-N-(4′-((1-methylpiperidin-4-yl)oxy)-[1,1′-biphenyl]-3-yl)benzamide]
IC50 [1, 7]: 8360 ± 1350 nM | IC50 [2, 8]: 4500 ± 460 nM

CN1CCC(Oc2ccc(-c3cccc(NC(=O)c4ccc(Cl)cc4)c3)cc2)CC1 [Compound 6h, 4-Chloro-N-(4′-((1-methylpiperidin-4-yl)oxy)-[1,1′-biphenyl]-3-yl)benzamide]
IC50 [1, 9]: 3630 ± 1030 nM | IC50 [1, 7]: 3630 ± 1030 nM | IC50 [2, 10]: 2230 ± 50 nM | IC50 [2, 8]: 2230 ± 50 nM

CN1CCC(Oc2ccc(-c3cccc(NC(=O)c4cccc(Cl)c4)c3)cc2)CC1 [Compound 6i, 3-Chloro-N-(4′-((1-methylpiperidin-4-yl)oxy)-[1,1′-biphenyl]-3-yl)benzamide]
IC50 [1, 7]: 4290 ± 430 nM | IC50 [2, 8]: 2110 ± 420 nM

CN1CCC(Oc2ccc(-c3cccc(NC(=O)c4ccccc4Cl)c3)cc2)CC1 [Compound 6k, 2-Chloro-N-(4′-((1-methylpiperidin-4-yl)oxy)-[1,1′-biphenyl]-3-yl)benzamide]
IC50 [1, 7]: 7870 ± 480 nM | IC50 [2, 8]: 5170 ± 490 nM

CN1CCC(Oc2ccc(-c3cccc(NC(=O)c4ccc(Cl)cc4Cl)c3)cc2)CC1 [Compound 6n, 2,4-Dichloro-N-(4′-((1-methylpiperidin-4-yl)oxy)-[1,1′-biphenyl]-3-yl)benzamide]
IC50 [1, 7]: 5910 ± 150 nM | IC50 [2, 8]: 3930 ± 470 nM

CN1CCC(Oc2ccc(-c3cccc(NC(=O)c4cc(Cl)cc(Cl)c4)c3)cc2)CC1 [Compound 6o, 3,5-Dichloro-N-(4′-((1-methylpiperidin-4-yl)oxy)-[1,1′-biphenyl]-3-yl)benzamide]
IC50 [1, 7]: 4230 ± 90 nM | IC50 [2, 8]: 3720 ± 150 nM

CN1CCC(Oc2ccc(-c3cccc(NC(=O)c4cccc5ccccc45)c3)cc2)CC1 [Compound 6p, N-(4′-((1-methylpiperidin-4-yl)oxy)-[1,1′-biphenyl]-3-yl)-1-naphthamide]
IC50 [1, 7]: 1640 ± 130 nM | IC50 [2, 8]: 1100 ± 170 nM

CN1CCC(Oc2ccc(-c3cccc(NC(=O)c4ccc5ccccc5c4)c3)cc2)CC1 [Compound 6q]
IC50 [1, 7]: 2090 ± 340 nM | IC50 [2, 8]: 1660 ± 270 nM

COc1cccc(-c2cc(C(=O)Nc3ccc(-c4ccc(OC5CCN(C)CC5)nc4)cc3)ccc2OC)c1 [Compound 19a, 3′,6-dimethoxy-N-(4-(6-((1-methylpiperidin-4-yl)oxy)pyridin-3-yl)phenyl)-[1,1′-biphenyl]-3-carboxamide]
IC50 [1, 11]: 1670 ± 90 nM | IC50 [2, 12]: 1560 ± 190 nM

COc1cccc(-c2cc(C(=O)Nc3ccc(-c4ccc(OC5CCN(C)CC5)cn4)cc3)ccc2OC)c1 [Compound 19b, 3′,6-dimethoxy-N-(4-(5-((1-methylpiperidin-4-yl)oxy)pyridin-2-yl)phenyl)-[1,1′-biphenyl]-3-carboxamide]
IC50 [1, 11]: 1910 ± 210 nM | IC50 [2, 12]: 1300 ± 150 nM

COc1cccc(-c2cc(C(=O)Nc3ccc(-c4ccc(OC5CCN(C)CC5)cc4)nc3)ccc2OC)c1 [Compound 19c, 3′,6-dimethoxy-N-(6-(4-((1-methylpiperidin-4-yl)oxy)phenyl)pyridin-3-yl)-[1,1′-biphenyl]-3-carboxamide]
IC50 [1, 11]: 1210 ± 130 nM | IC50 [2, 12]: 1020 ± 10 nM

COc1cccc(-c2cc(C(=O)Nc3ccc(-c4ccc(OC5CCN(C)CC5)cc4)cn3)ccc2OC)c1 [Compound 19d, 3′,6-dimethoxy-N-(5-(4-((1-methylpiperidin-4-yl)oxy)phenyl)pyridin-2-yl)-[1,1′-biphenyl]-3-carboxamide]
IC50 [1, 11]: 1070 ± 10 nM | IC50 [2, 12]: 1020 ± 10 nM

COc1cccc(-c2cc(C(=O)Nc3ccc(-c4ccc(OC5CCN(C)CC5)c(C)c4)cc3)ccc2OC)c1 [Compound 29a, 3′,6-dimethoxy-N-(3′-methyl-4′-((1-methylpiperidin-4-yl)oxy)-[1,1′-biphenyl]-4-yl)-[1,1′-biphenyl]-3-carboxamide]
IC50 [1, 13]: 830 ± 30 nM | IC50 [2, 14]: 1690 ± 80 nM

COc1cccc(-c2cc(C(=O)Nc3ccc(-c4ccc(OC5CCN(C)CC5)cc4C)cc3)ccc2OC)c1 [Compound 29b, 3′,6-dimethoxy-N-(2′-methyl-4′-((1-methylpiperidin-4-yl)oxy)-[1,1′-biphenyl]-4-yl)-[1,1′-biphenyl]-3-carboxamide]
IC50 [1, 13]: 1180 ± 110 nM | IC50 [2, 14]: 1210 ± 30 nM

COc1cccc(-c2cc(C(=O)Nc3ccc(-c4ccc(OC5CCN(C)CC5)cc4)c(C)c3)ccc2OC)c1 [Compound 29c, 3′,6-dimethoxy-N-(2-methyl-4′-((1-methylpiperidin-4-yl)oxy)-[1,1′-biphenyl]-4-yl)-[1,1′-biphenyl]-3-carboxamide]
IC50 [1, 13]: 970 ± 10 nM | IC50 [2, 14]: 1570 ± 560 nM

COc1cccc(-c2cc(C(=O)Nc3ccc(-c4ccc(OC5CCN(C)CC5)cc4)cc3C)ccc2OC)c1 [Compound 29d, 3′,6-dimethoxy-N-(3-methyl-4′-((1-methylpiperidin-4-yl)oxy)-[1,1′-biphenyl]-4-yl)-[1,1′-biphenyl]-3-carboxamide]
IC50 [1, 13]: 2470 ± 390 nM | IC50 [2, 14]: 1430 ± 350 nM

COc1cccc(-c2cc(C(=O)Nc3ccc(-c4ccc(OC5CCN(C)CC5)c(OC)c4)cc3)ccc2OC)c1 [Compound 29e, 3′,6-dimethoxy-N-(3′-methoxy-4′-((1-methylpiperidin-4-yl)oxy)-[1,1′-biphenyl]-4-yl)-[1,1′-biphenyl]-3-carboxamide]
IC50 [1, 13]: 680 ± 130 nM | IC50 [2, 14]: 1320 ± 80 nM

COc1cccc(-c2cc(C(=O)Nc3ccc(-c4ccc(OC5CCN(C)CC5)cc4OC)cc3)ccc2OC)c1 [Compound 29f, 3′,6-dimethoxy-N-(2′-methoxy-4′-((1-methylpiperidin-4-yl)-oxy)-[1,1′-biphenyl]-4-yl)-[1,1′-biphenyl]-3-carboxamide]
IC50 [1, 13]: 1410 ± 350 nM | IC50 [2, 14]: 1350 ± 160 nM

COc1cccc(-c2cc(C(=O)Nc3ccc(-c4ccc(OC5CCN(C)CC5)cc4)c(OC)c3)ccc2OC)c1 [Compound 29g, 3′,6-dimethoxy-N-(2-methoxy-4′-((1-methylpiperidin-4-yl)oxy)-[1,1′-biphenyl]-4-yl)-[1,1′-biphenyl]-3-carboxamide]
IC50 [1, 13]: 900 ± 80 nM | IC50 [2, 14]: 1500 ± 80 nM

COc1cccc(-c2cc(C(=O)Nc3ccc(-c4ccc(OC5CCN(C)CC5)cc4)cc3OC)ccc2OC)c1 [Compound 29h, 3′,6-dimethoxy-N-(3-methoxy-4′-((1-methylpiperidin-4-yl)oxy)-[1,1′-biphenyl]-4-yl)-[1,1′-biphenyl]-3-carboxamide]
IC50 [1, 13]: 3920 ± 210 nM | IC50 [2, 14]: 1220 ± 40 nM

COc1cccc(-c2cc(C(=O)Nc3ccc(-c4ccc(OCCC5CCCN5C)cc4)cc3)ccc2OC)c1 (stereo not shown) [Compound 56d, 3′,6-dimethoxy-N-(4′-(2-(1-methylpyrrolidin-2-yl)ethoxy)-[1,1′-biphenyl]-4-yl)-[1,1′-biphenyl]-3-carboxamide]
IC50 ([1]; SK-BR-3, Table 7, para-para biphenyl core with modified ether groups): 1750 ± 240 nM
